Data taken from patent publication US6517846B2, “Cosmetic composition” (Kyowa Hakko Kogyo Co., Ltd., priority 2000, dated 2003).
Structures can show the parent of a compound that is named as a salt. Where two headings read alike, the source gives them in different places.

Legend:
[1] = tested on: human subjects (washing hands); conditions: grades scored; 1 Very irritative, 5 Very mild; mean n = 5
Protocol: The test compounds were evaluated using the following five grades. The intermediate grade between 1 and 3 was made 2, and that between 3 and 5 was made 4. Each grade 1, 2, 3, 4, 5 was scored as −5, −1.5, 0, 1.5, and 5, respectively, and the average of the scores was calculated for each evaluation item.

[2] = tested on: human normal keratinocytes; test: Cytotoxicity in human normal keratinocytes, MTT method; format: cell-based; conditions: 48 hours incubation, 1 to 10,000 ppm, pH 7, mean n = 4
Protocol: (1) A method using 3-(4,5-dimethylthiazol-2-yl)-2,5-diphenyl tetrazolium bromide (MTT method):
This is a method where the number of living cells is evaluated by determining enzyme activity related to respiratory chain present in inner membranes of mitochondria in living cells. The amount of MTT formazan produced after incorporation of MTT into cells was determined by colorimetric quantification at a wavelength of 570 nm (reference: 650 nm). [See Sugawara, et al., “Saibou Baiyou (Cell Culture) III”, 4477-4482 (1984); J. Soc. Cosmet. Chem. Jpn., 27, 498-505 (1993)].
(§1) (4) Using the above three methods for the evaluation of suppression of cytotoxicity, suppressive effects of the test compounds on cytotoxicity were determined as follows.

[3] = tested on: human skin (forearm crook, females with roughening skin); test: Water content in skin after repeated cup treatment (Skicon-200); format: in vivo; conditions: for Change of water content immediately before the treatment / Change of water content immediately after the second treatment: 5 w/v % solution; for Change of water content immediately before the treatment: twice a day; for water content in the skin, tendency in words: summary of Table 3
Protocol: A cup of 1-cm diameter was closely fixed to the skin of a forearm crook, and 0.5 ml of a solution containing 5 w/v % test compound was poured into the cup for treatment for 30 minutes. Then, the test site was washed with tepid water and wiped with a Kim wipe. The skin was acclimated under a constant environment at a temperature of 20° C. and a relative humidity of 50% for 20 minutes, and then, the water content in skin was measured using Skicon-200 (supplied by IBS Corporation). The treatment was repeated twice a day and continued for 4 days to determine the change of the water content in skin. The water content in each site to be treated before the treatment on day 0 was defined as 100%, and the water content in each site treated with the test compound immediately before and after the treatment (after the second treatment) on each day was determined as a relative value (%).

[4] = tested on: human skin (forearm crook, females with roughening skin); conditions: 78 hours after the first treatment on day 1, 5 w/v % solution
[5] = tested on: human normal keratinocytes; test: Cytotoxicity in human normal keratinocytes, neutral red (NR) method; format: cell-based; conditions: 48 hours incubation, 1 to 10,000 ppm, pH 7, mean n = 4
Protocol: (2) Neutral red (NR) method:
NR penetrates plasma membranes and is concentrated in lysosomes in normal cells, but is not capable of being incorporated into cells with surface damages. Thus, the NR method is a method where the number of living cells is evaluated by determining the amount of NR incorporated in living cells (the absorbance at a wavelength of 540 nm was measured), and was carried out according to the NR bioassay data book of Sanko Pure Chemicals.
as §1

[6] = tested on: human skin (forearm crook, females with roughening skin)
Protocol: A cup of 1-cm diameter was closely fixed to the skin of a forearm crook, and 0.5 ml of a solution containing 5 w/v % test compound was poured into the cup for treatment for 30 minutes. Then, the test site was washed with tepid water and wiped with a Kim wipe.
On the next day of that when the above treatment was completed, transpiration rates of water at the treated sites were measured using a TEWA meter (TM210, supplied by Nippon Eurotech Co., Ltd.)

[7] = tested on: IL-1α; conditions: mean n = 2
Protocol: The determination of IL-1α was carried out using an IL-1α human ELISA system supplied by Amarsham.
The cells were seeded in a 25 cm^2-flask coated with collagen and cultured at 37° C. under 5% of CO2 for 6 days.
One day after the seeding, the test compounds prepared at given concentrations (1 to 10,000 ppm, pH 7) were each added to the culture and continuously incubated for 48 hours.
Also, the release of IL-1α from the cultured cells was determined by calculating IL-1α concentration in the culture media with a lapse of time.

[8] = Day 1 (0 hr.), baseline defined as 100%, 30 min
[9] = Day 1 (6 hr.), relative to pre-treatment = 100%
[10] = Day 2 (24 hr.), relative to pre-treatment = 100%
[11] = Day 2 (30 hr.), relative to pre-treatment = 100%
[12] = Day 3 (48 hr.), relative to pre-treatment = 100%
[13] = Day 3 (54 hr.), relative to pre-treatment = 100%
[14] = Day 4 (72 hr.), relative to pre-treatment = 100%
[15] = Day 4 (78 hr.), relative to pre-treatment = 100%

CCCCCCCCCCCC(=O)NCCC(=O)O [LBA, sodium salt of lauroyl β-alanine]
Irritation (after use), average score [1]: 1.5
MTT, IC50 [2]: 35 ppm
Change of water content immediately before the treatment [3, 8]: 100%
Change of water content immediately after the second treatment [3, 9]: 113%
Change of water content immediately before the treatment [3, 10]: 88%
Change of water content immediately after the second treatment [3, 11]: 82%
Change of water content immediately before the treatment [3, 12]: 104%
Change of water content immediately after the second treatment [3, 13]: 104%
Change of water content immediately before the treatment [3, 14]: 93%
Change of water content immediately after the second treatment [3, 15]: 101%
water content in the skin, tendency in words [3]: no effect on the water content was observed
Desquamation [4]: A little
Erythema [4]: None
Desquamation ([4]; listed as lauroyl β-alanine): lowest
NR, IC50 [5]: 33 ppm
water transpiration rate, in words ([6]; summary of Table 5): lowest

Triethanolamine N-Cocoyl-L-glutaminate [GMT]
MTT, IC50 [2]: 70 ppm
Change of water content immediately before the treatment [3, 8]: 100%
Change of water content immediately after the second treatment [3, 9]: 124%
Change of water content immediately before the treatment [3, 10]: 135%
Change of water content immediately after the second treatment [3, 11]: 126%
Change of water content immediately before the treatment [3, 12]: 168%
Change of water content immediately after the second treatment [3, 13]: 128%
Change of water content immediately before the treatment [3, 14]: 140%
Change of water content immediately after the second treatment [3, 15]: 120%
water content in the skin, tendency in words [3]: tendency to increase with a lapse of time
NR, IC50 [5]: 53 ppm

triethanolamine N-cocoyl glutamate [GAT]
Irritation (after use), average score [1]: 1.2
MTT, IC50 [2]: 60 ppm
IL-1α ([7]; 10 ppm test compound): 172.16 pg/well
IL-1α ([7]; 30 ppm test compound): 216.18 pg/well
IL-1α ([7]; 60 ppm test compound): 333.05 pg/well
IL-1α ([7]; 100 ppm test compound): 313.78 pg/well
IL-1α ([7]; 300 ppm test compound): 269.13 pg/well
Change of water content immediately before the treatment [3, 8]: 100%
Change of water content immediately after the second treatment [3, 9]: 88%
Change of water content immediately before the treatment [3, 10]: 97%
Change of water content immediately after the second treatment [3, 11]: 76%
Change of water content immediately before the treatment [3, 12]: 111%
Change of water content immediately after the second treatment [3, 13]: 78%
Change of water content immediately before the treatment [3, 14]: 80%
Change of water content immediately after the second treatment [3, 15]: 73%
water content in the skin, tendency in words [3]: tendency to decrease immediately after the treatment
Desquamation [4]: Somewhat aggravated
Erythema [4]: None
Desquamation ([4]; listed as N-cocoyl-L-glutamate): much desquamation
NR, IC50 [5]: 48 ppm
Relative water transpiration rates ([6]; next day after the 4-day treatment, Control = 100, mean n = 4): 138%
